Test results: patent US8772199B2, “Herbicidal compositions for tolerant or resistant maize crops” (Bayer Intellectual Property GmbH, priority 1998, dated 2014)

Columns and labels:
Assay in all cases: Field trial with maize, herbicidal action
Type in all cases: in vivo
[1] = system: Lolium multiflorum; conditions: 2.5 g of a.s./ha; application 2- to 4-leaf stage; scoring 26 days after application
Description: (§1) Transgenic maize plants with a resistance to one or more herbicides (A) together with typical weed plants were grown in the open on 2×5 m plots under natural field conditions; alternatively, weed infestation occurred naturally when the maize plants were grown.
(§2) […] The damage to, and the development of, all aerial parts of the plants was recorded. Scoring was done on the basis of a percentage sale (100% action=all plants destroyed; 50% action=50% of the plants and green parts of the plants destroyed; 0% action=no recognizable effect=like control plot. The mean of the score values of in each case 4 plots was calculated.

[2] = system: Fagopyrum esculentum; conditions: 2.5 g of a.s./ha; application 2- to 4-leaf stage; scoring 26 days after application
Description: as §1, §2

[3] = system: Lamium amplexicaule; conditions: 2.5 g of a.s./ha; application 1-leaf stage; scoring 17 days after application
Description: as §1, §2

[4] = system: Cassia obtusifolia; conditions: 925 g of a.s./ha; application 3-leaf stage; scoring 21 days after application
Description: as §1, §2

Structure (SMILES) | Herbicidal action (%) against Lolium multiflorum [1] | Herbicidal action (%) against Fagopyron esculentum [2] | Herbicidal action (%) against Lamium amplexicaule [3] | Herbicidal action (%) against Cassia obtusifolia [4]
COc1nc(C)nc(NC(=O)NS(=O)(=O)c2cc(I)ccc2C(=O)O)n1 [(B2.3), 4-iodo-2-(4-methoxy-6-methyl-1,3,5-triazin-2-ylcarbamoylsulfamoyl)benzoic acid] | 84% | 85% | 55% | 
CCC(CC)Nc1c([N+](=O)[O-])cc(C)c(C)c1[N+](=O)[O-] [(B2.1), N-(1-ethylpropyl)-2,6-dinitro-3,4-xylidine] |  |  |  | 0%
